{"source": "patent US11065227B2", "about": "“Use of cannabinoids in the treatment of multiple myeloma” (GW Research Limited, priority 2016, dated 2021)", "key": {"[1]": {"test_system": "U266 cell line", "assay": "MTT cell viability assay, U266", "conditions": "Homo sapiens", "description": "(§1) U266 and RPM18226 (RPMI) MM cell lines were purchased from ATCC (LGC Standards, Milan, IT). Cell authentication was performed by IST (Genova, Italy). Cell lines were cultured in RPMI1640 medium (Lonza, Milan, IT) supplemented with 10% foetal bovine serum (FBS), 2 mM L-glutamine, 100 IU/ml penicillin, 100 μg/ml streptomycin and 1 mM sodium pyruvate. Cell lines were maintained at 37° C. with 5% CO2 and 95% humidity.\n(§2) U266 and RPMI cell lines (4×10^4 cells/ml) were seeded in 96-well plates, in a final volume of 100 μl/well. After 1 day of incubation, compounds or vehicles were added. At least four replicates were used for each treatment.\n(§3) At the indicated time point, cell viability was assessed by adding 0.8 mg/ml of 3-[4,5-dimethylthiazol-2-yl]-2,5 diphenyl tetrazolium bromide (MTT) (Sigma Aldrich) to the media. […]\n(§4) The absorbance of the samples against a background control (medium alone) was measured at 570 nm using an ELISA reader microliter plate (BioTek Instruments, Winooski, Vt., USA). Synergistic activity of the THC-CBD combinations was determined by the isobologram and combination index (CI) methods (CompuSyn Software, ComboSyn, Inc. Paramus, N J 2007). The CI was used to express synergism (CI<1), additivity (CI=1) or antagonism (CI>1) and was calculated according to the standard isobologram equation (Chou, 2006)."}, "[2]": {"test_system": "RPMI cell line", "assay": "MTT cell viability assay, RPMI", "description": "as §1, §2, §3, §4"}, "[3]": {"test_system": "U266 and RPMI cell lines", "assay": "MTT cell viability assay, statements for both MM cell lines", "conditions": "for CB2 receptor dependence of cytotoxic effect: pre-treatment with 20 μM AM630 (CB2 antagonist), FIG. 2", "description": "as §1, §2\nAt the indicated time point, cell viability was assessed by adding 0.8 mg/ml of 3-[4,5-dimethylthiazol-2-yl]-2,5 diphenyl tetrazolium bromide (MTT) (Sigma Aldrich) to the media. After 3 h, the plates were centrifuged, the supernatant was removed, and the pellet was solubilized with 100 μl/well DMSO.\nas §4"}, "[4]": {"test_system": "LC3-II/LC3-1 and p62 in U266 and RPMI cell lines", "assay": "Western blot of autophagy markers LC3 and p62", "assay_type": "cell-based", "conditions": "12.5 μM; 24 h of treatment; FIG. 4A", "description": "(§5) U266 and RPMI cell lines were lysed in buffer containing protease inhibitor cocktail (Sigma Aldrich). Lysates were resolved by sodium dodecyl sulphate polyacrylamide gel (8-14%) and transferred onto Hybond-C extra membranes (GE Healthcare, Munich, Germany). Non-specific binding sites were blocked with 5% low-fat dry milk in phosphate-buffered saline 0.1% Tween 20 for 1 h.\n(§6) Blots were incubated with the primary Abs: anti-iβ5 subunit (1:1000, Cell Signalling, Denver, Colo., USA), rabbit anti-LC3 (2 μg/ml, Novus Biologicals, Littleton, Colo., USA), rabbit anti-caspase-3 (1:1000, Cell Signalling), rabbit anti-p62 (1:1000, Cell Signalling), rabbit anti-H2AX (1:1000, Cell Signalling) and mouse anti-glyceraldehydes-3-phosphate dehydrogenase (GAPDH, 1:3000, OriGene, Rockville, Md., USA) Abs overnight and then incubated with their respective HRP-conjugated anti-mouse and anti-rabbit (1:2000, Cell Signalling) Abs for 1 h. The detection was performed using the LiteAblot PLUS or the LiteAblot TURBO (EuroClone, Milano, Italy) kits, and densitometric analysis was carried out by a Chemidoc using the Quantity One software (Bio-Rad, Hercules, Calif., USA).\nThese experiments investigated if the increase in sub-G1 cell accumulation by THC-CBD combination treatment was due to an autophagic-cell death process. […]"}, "[5]": {"test_system": "γ-H2AX (H2AX) in U266 and RPMI cell lines", "assay": "Western blot of γ-H2AX", "assay_type": "cell-based", "conditions": "24 h post-treatments; both cell lines; FIG. 5C", "description": "as §5, §6\nThe presence of γ-H2AX (H2AX), a phosphorylated variant of histone 2A that is associated with DNA double-strand breaks was investigated."}, "[6]": {"test_system": "β5i subunit in U266 and RPMI cell lines", "assay": "β5i mRNA by qRT-PCR after IFN-γ", "assay_type": "cell-based", "conditions": "after 24 h IFN-γ (100 U/ml); 12.5 μM; respect to IFN-γ alone; FIG. 6A"}, "[7]": {"test_system": "β5i subunit in U266 and RPMI cell lines", "assay": "β5i precursor and mature form by western blot after IFN-γ", "assay_type": "cell-based", "conditions": "both cell lines, FIG. 6B", "description": "as §5, §6\nThe potential role of the combination of THC-CBD in regulating the β5i subunit was investigated. U266 and RPMI cell lines were treated with CBD and THC, after 24 h exposure to IFN-γ (100 U/ml)."}, "[8]": {"test_system": "CXCR4 and CD147 in U266 and RPMI cell lines", "assay": "CXCR4 and CD147 expression by qRT-PCR", "assay_type": "cell-based", "conditions": "alone and in combination; qRT-PCR and FACS; MM cell lines"}, "[9]": {"test_system": "U266 and RPMI cell lines", "assay": "Cell migration assay (SDF-1, eCyPA chemotaxis)", "assay_type": "cell-based", "conditions": "24 h treatment; single and in combination; FIG. 8C"}, "[10]": {"test_system": "U266 cell line", "conditions": "Morelli et al. 2014, read-out: IC50, reducing cell viability; cited from earlier work"}, "[11]": {"test_system": "RPMI cell line", "conditions": "Morelli et al. 2014, read-out: IC50, reducing cell viability; cited from earlier work"}, "[12]": {"test_system": "U266", "conditions": "Morelli et al. 2014; cited from earlier work"}, "[13]": {"test_system": "RPMI", "conditions": "Morelli et al. 2014; cited from earlier work"}, "[14]": {"test_system": "U266 and RPMI cell lines", "assay": "Cell cycle analysis by PI staining and FACS, both MM cell lines", "assay_type": "cell-based", "conditions": "12.5 μM, vs control, FIG. 3"}}, "note": "Like-named read-outs stand apart in the source and are kept apart here.", "data": [{"compound": "C=C(C)[C@@H]1CCC(C)=C[C@H]1c1c(O)cc(CCCCC)cc1O", "note": "[CBD, Cannabidiol]", "values": [{"measurement": "cytotoxicity at 12.5 µM", "setting": "[1]; U-266, read-out: decrease in cell viability", "value": 20, "unit": "%"}, {"measurement": "cytotoxicity at 12.5 µM", "setting": "[2]; read-out: decrease in cell viability", "value": 20, "unit": "%"}, {"measurement": "cytotoxic effects after pre-treatment with BAF1", "setting": "[3]", "value": "reversed"}, {"measurement": "CB2 receptor dependence of cytotoxic effect", "setting": "[3]", "value": "not CB2 receptors dependent"}, {"measurement": "LC3-II/LC3-1 ratio", "setting": "[4]", "value": "slight increase"}, {"measurement": "levels of the phosphorylated form of H2AX", "setting": "[5]", "value": "increase levels"}, {"measurement": "β5i expression level (mRNA) induced by IFN-γ", "setting": "[6]", "value": "low effects"}, {"measurement": "expression of precursor and mature form of β5i (protein)", "setting": "[7]", "value": "low efficacy"}, {"measurement": "expression of CXCR4 and CD147 chemotactic receptors", "setting": "[8]", "value": "reduce the expression"}, {"measurement": "SDF-1-, eCyPA- and SDF-1/eCyPA-mediated chemotaxis compared with vehicle-treated cells", "setting": "[9]", "value": "reduced"}, {"measurement": "IC50", "setting": "[10]", "value": 19.8, "unit": "µM"}, {"measurement": "IC50", "setting": "[11]", "value": 22.4, "unit": "µM"}, {"measurement": "blocking cell cycle in GO/G1 phase", "setting": "[12]", "value": 38, "unit": "%"}, {"measurement": "blocking cell cycle in GO/G1 phase", "setting": "[13]", "value": 42, "unit": "%"}]}, {"compound": "CC(C)C[C@H](NC(=O)[C@H](CCc1ccccc1)NC(=O)CN1CCOCC1)C(=O)N[C@@H](Cc1ccccc1)C(=O)N[C@@H](CC(C)C)C(=O)[C@@]1(C)CO1", "note": "[CFZ, carfilzomib]", "values": [{"measurement": "cell viability", "setting": "[3]; presence or absence of IFN-γ, 72 h post-treatment, data not shown", "value": "reduced cell viability"}, {"measurement": "expression of CXCR4 and CD147 chemotactic receptors", "setting": "[8]", "value": "reduce the expression"}, {"measurement": "SDF-1-, eCyPA- and SDF-1/eCyPA-mediated chemotaxis compared with vehicle-treated cells", "setting": "[9]", "value": "reduced"}]}, {"compound": "CCCCCc1cc(O)c2c(c1)OC(C)(C)[C@@H]1CCC(C)=C[C@@H]21", "note": "[THC, Tetrahydrocannabinol]", "values": [{"measurement": "IC50", "setting": "[1]; U-266, 72 h, read-out: IC50, cell viability", "value": 39.5, "unit": "µM"}, {"measurement": "IC50", "setting": "[2]; 72 h, read-out: IC50, cell viability", "value": 30.8, "unit": "µM"}, {"measurement": "CB2 receptor dependence of cytotoxic effect", "setting": "[3]", "value": "not CB2 receptors dependent"}, {"measurement": "accumulation in sub-G1 phase (hypodiploid DNA)", "setting": "[14]; 48 h post-treatment", "value": "accumulation in sub-G1 phase"}, {"measurement": "cell accumulation in G1 phase", "setting": "[14]; starting from 24 h post-treatment", "value": "induce cell accumulation in G1 phase"}, {"measurement": "LC3-II/LC3-1 ratio", "setting": "[4]", "value": "no effect"}, {"measurement": "levels of the phosphorylated form of H2AX", "setting": "[5]", "value": "increase levels"}, {"measurement": "β5i expression level (mRNA) induced by IFN-γ", "setting": "[6]", "value": "low effects"}, {"measurement": "expression of precursor and mature form of β5i (protein)", "setting": "[7]", "value": "low efficacy"}, {"measurement": "expression of CXCR4 and CD147 chemotactic receptors", "setting": "[8]", "value": "reduce the expression"}, {"measurement": "SDF-1-, eCyPA- and SDF-1/eCyPA-mediated chemotaxis compared with vehicle-treated cells", "setting": "[9]", "value": "reduced"}]}]}
